The values below come from patent publication US11332512B2, “Peptides and combination of peptides for use in immunotherapy against various tumors” (Immatics Biotechnologies GmbH, priority 2015, dated 2022).

Experiment [1] deals with CD8+ T cells. Description: In vitro immunogenicity: T-cell priming with aAPCs loaded with peptide/MHC and anti-CD28, pMHC multimer readout. The experiment is classed as cell-based, human. Particulars: percentage of positive wells among evaluable, HLA-A*02 restricted peptides. From the text:
In order to obtain information regarding the immunogenicity of the TUMAPs of the present invention, the inventors performed investigations using an in vitro T-cell priming assay based on repeated stimulations of CD8+ T cells with artificial antigen presenting cells (aAPCs) loaded with peptide/MHC complexes and anti-CD28 antibody.
In order to perform in vitro stimulations by artificial antigen presenting cells loaded with peptide-MHC complex (pMHC) and anti-CD28 antibody, the inventors first isolated CD8+ T cells from fresh HLA-A*02 leukapheresis products via positive selection using CD8 microbeads (Miltenyi Biotec, Bergisch-Gladbach, Germany) of healthy donors obtained from the University clinics Mannheim, Germany, after informed consent. PBMCs and isolated CD8+ lymphocytes were incubated in T-cell medium (TCM) until use consisting of RPMI-Glutamax (Invitrogen, Karlsruhe, Germany) supplemented with 10% heat inactivated human AB serum (PAN-Biotech, Aidenbach, Germany), 100 U/ml Penicillin/100 μg/ml Streptomycin (Cambrex, Cologne, Germany), 1 mM sodium pyruvate (CC Pro, Oberdorla, Germany), 20 μg/ml Gentamycin (Cambrex). 2.5 ng/ml IL-7 (PromoCell, Heidelberg, Germany) and 10 U/ml IL-2 (Novartis Pharma, Nürnberg, Germany) were also added to the TCM at this step. Generation of pMHC/anti-CD28 coated beads, T-cell stimulations and readout was performed in a highly defined in vitro system using four different pMHC molecules per stimulation condition and 8 different pMHC molecules per readout condition.
The purified co-stimulatory mouse IgG2a anti human CD28 Ab 9.3 (Jung et al., 1987) was chemically biotinylated using Sulfo-N-hydroxysuccinimidobiotin as recommended by the manufacturer (Perbio, Bonn, Germany). Beads used were 5.6 μm diameter streptavidin coated polystyrene particles (Bangs Laboratories, Illinois, USA).
pMHC used for positive and negative control stimulations were A*0201/MLA-001 (peptide […] (SEQ ID NO. 289) from modified Melan-A/MART-1) and A*0201/DDX5-001 ([…] from DDX5, SEQ ID NO. 290), respectively.
800.000 beads/200 μl were coated in 96-well plates in the presence of 4×12.5 ng different biotin-pMHC, washed and 600 ng biotin anti-CD28 were added subsequently in a volume of 200 μl. Stimulations were initiated in 96-well plates by co-incubating 1×10^6 CD8+ T cells with 2×10^5 washed coated beads in 200 μl TCM supplemented with 5 ng/ml IL-12 (PromoCell) for 3 days at 37° C. Half of the medium was then exchanged by fresh TCM supplemented with 80 U/ml IL-2 and incubating was continued for 4 days at 37° C. This stimulation cycle was performed for a total of three times. For the pMHC multimer readout using 8 different pMHC molecules per condition, a two-dimensional combinatorial coding approach was used as previously described (Andersen et al., 2012) with minor modifications encompassing coupling to 5 different fluorochromes. Finally, multimeric analyses were performed by staining the cells with Live/dead near IR dye (Invitrogen, Karlsruhe, Germany), CD8-FITC antibody clone SK1 (BD, Heidelberg, Germany) and fluorescent pMHC multimers. For analysis, a BD LSRII SORP cytometer equipped with appropriate lasers and filters was used. Peptide specific cells were calculated as percentage of total CD8+ cells. Evaluation of multimeric analysis was done using the FlowJo software (Tree Star, Oregon, USA). In vitro priming of specific multimer+CD8+ lymphocytes was detected by comparing to negative control stimulations.

Experiment [2] addresses HLA-A*02:01 (Homo sapiens, UniProt P04439, D140Y/D185E/D98H/E176V/E277Q/G131W/G231S/I119V/I121R/I166T/I218V/L300P/L318F/N151K/N90K/P208A/P217A/Q86G/Q94H/R138H/R169H/T345S). Description: MHC binding assay: UV-ligand exchange with beta2m ELISA (peptide exchange yield). Particulars: binding to HLA-A*02:01, β2m ELISA. The method in brief:
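Binding capacity is expressed as the yield of UV-mediated ligand exchange, reflecting how well each peptide stabilizes peptide-receptive MHC. Stabilized complexes are read out by anti-β2m HRP ELISA (450 nm) after streptavidin capture, with refolded MLA-001 monomer standards for quantitation.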

On to “101 (SLLEVNEASSV; listed as Homo sapiens) [compound 101]”, for which the “Wells positive [%]” value in experiment [1] is on record as “+ (<20% = +)”. In addition, in experiment [2], the “Peptide exchange (MHC class I binding score, peptide exchange yield)” value is “+++ (= ≥50% = +++)”.
